Experimental data published in patent US20240245703A1, “TOPICAL APPLICATION OF AGENTS TO REDUCE SUN SENSITIVITY AND IMPROVE TOPICAL PHOTODYNAMIC THERAPY” (Wright State University, priority 2021, published 2024).

Assays:
UVB-induced erythema = assay: erythema and temperature response to low-fluence UVB on temple skin of subjects with rosacea; format: in vivo, human
Procedure: 30 minutes later, a 1 cm area of previously treated skin was irradiated with a low 300 J/m^2 UVB. Erythema was measured before UVB and at various times post-UVB irradiation in blinded fashion with a mexameter and temperature using a thermal imaging camera. […] Values represent the change in erythema from baseline for each subject at 24 hours post-UVB. […] The boxes represent the area treated with UVB. Insets into the photographs are thermal camera images of the UVB-treated skin, with white areas on the thermal imaging camera denoting increased temperature.

human skin explants = assay: UVB-induced MVP formation in human skin explants ex vivo; format: cell-based; details: 4 h
Text: Four hours post-UVB triplicate skin biopsies were obtained and MVP quantified.

UVB-induced MVP release = assay: MVP release in skin and plasma of wild-type and XPA KO mice after UVB or topical agonists; format: in vivo; details: WT and XPA KO mice, 5 kJ/m^2 UVB, 500 μM imipramine topical immediately post-UVB, 4 h
Text: The enzyme aSMase is also known to generate MVP in response to many stressors such as UVB via activation of PAFR. Yet other stimuli such as in response to a phorbol ester (TPA) are independent of the PAFR. Therefore, administration of inhibitors of aSMase may block UVB-MVP release in XPA deficient model, as well as in other situations where MVP release is independent of the PAFR.
Groups of 8-13 wild-type (C57BL/6) and XPA KO mice received no treatment (NT) or 1 KJ/m^2, 2.5 kJ/m^2, or 5 KJ/m^2 of UVB to their dorsal back skin. In some experiments, mice were treated with topical application of the PAFR agonist carbamoyl-PAF (CPAF; 50 μL of 100 μM) or the phorbol ester 12-O-tetradecanoylphorbol-13-acetate (TPA; 50 μL of 100 μM) in 90% ethanol: 10% DMSO vehicle. For the data in FIG. 2, triplicate skin biopsies were obtained and weighed four hours post-treatment, and MVP was measured. […] For the data in FIG. 3, plasma was obtained and MVP was measured four hours post-treatment. […] Data are the mean±S.E. fold change of MVP count. Groups were compared using One-Way ANOVA and Tukey's post-hoc test. Differences in samples were considered significant if the P value was less than 0.05. […]
For the data shown in FIG. 4, triplicate skin biopsies were obtained and MVP was measured. For the data shown in FIG. 5, plasma was obtained and MVP was measured. […]

TNFα and IL-6 mRNA = assay: UVB-induced cytokine mRNA (qRT-PCR) in mouse skin biopsies; format: in vivo; details: mice, topical post-UVB, skin biopsies 4 h
HaCaT keratinocytes = assay: PDT (5-ALA + blue light) MVP release in HaCaT keratinocytes; format: cell-based, human; design: PDT-induced MVP release: dose or concentration left out as unconfirmed; details: HaCaT keratinocytes, imipramine added immediately after PDT, supernatants 4 h
Procedure: PDT results in acute cellular destruction and inflammation and photosensitivity, as well as delayed immunosuppression. […] Thus, it was of further interest whether experimental PDT of HaCaT keratinocytes generated MVP in vitro. To that end, HaCaT cells were pretreated with 5-ALA alone, or blue light alone, or a 4 hour incubation of 5-ALA in the dark followed by various fluences of blue light, and MVP were measured in the supernatants at 4 hours post blue light. 100 nM CPAF and TPA were used as positive controls for MVP release.
For the data shown in FIG. 14, HaCaT keratinocytes were treated with sham (no treatment), 0.1% ethanol vehicle control (VEH), 100 nM TPA, 100 nM CPAF, 1 mM 5-ALA for 4 hours, or 5-ALA followed by various fluences (2.5-20 J/cm^2) of blue light or blue light alone. Levels of MVPs released into supernatants were measured at 4 hours. […] For the data shown in FIG. 15, human skin explants were treated with sham, 100 μL vehicle (90% ethanol+10% DMSO) (VEH), 1 μM TPA, 1 µM CPAF, 1 mM 5-ALA for 4 hours, blue light or 5-ALA+blue light at 20 J/cm^2. After four hours, duplicate 6-mm punch biopsies were obtained, weighed, and MVPs were measured. The data are the mean±SE from 3-4 separate experiments conducted in duplicate. * Denotes statistically significant (P <0.05) changes from sham values.
Supernatants were collected at 4 hours and MVP measured. The data are the mean±SE MVP fold change from sham-treated values. For the data shown in FIG. 17, human skin explants were treated as in FIG. 15, with the exception that in some experiments 100 μL of 5 mM IMIP was added post-PDT. MVP were measured in duplicate 6-mm punch biopsies obtained 4 hours post-treatment.

[1] = test system: PDT-induced immunosuppression; assay: contact hypersensitivity (CHS) to DNFB after PDT, ear thickness; format: in vivo, mice; details: wild-type mice
Text: Five days later the mice underwent sensitization with the neoantigen DNFB. To test for local immunosuppression, DNFB was applied to the PDT-treated area. To test for systemic immunosuppression, the DNFB was applied to back skin at least 2 cm away from the PDT-treated area. Nine days later the mice underwent elicitation reactions to DNFB by application to one ear, with vehicle applied to the other ear. One day later the ear thickness was obtained as a measure of CHS reaction and compared to pre-treatment and vehicle-treated values. Some mice were treated with intraperitoneal CPAF as a positive control for systemic immunosuppression.
For the data shown in FIG. 20, wild-type mice either were injected intraperitoneally with 250 ng CPAF as a positive control for immunosuppression, underwent PDT using 10 J/cm^2 blue light, or received no treatment (SHAM). […] Five days later the mice underwent sensitization with DNFB in PDT-treated (local immunosuppression) or non-PDT-treated skin (systemic immunosuppression). Nine days later the mice underwent elicitation reactions to ears with ear thickness measured at 24 hours. For the data shown in FIG. 21, wild type and aSMase-deficient (Smpd1−/−) mice underwent treatment with CPAF or PDT followed by DNFB sensitization/elicitation reactions as in FIG. 20. The data are mean±SD values. * Denotes statistically significant (P<0.05) changes from sham treatment values using two-way ANOVA.

## CN(C)CCCN1c2ccccc2CCc2ccccc21 [Imipramine]
UVB-induced erythema; one representative rosacea subject, 4% imipramine + UVB versus vehicle + UVB
  skin temperature (thermal imaging) after UVB: less temperature signature
UVB-induced erythema; subjects with rosacea, 0.1 ml 4% imipramine 30 minutes before 300 J/m^2 UVB, 24 hours post-UVB
  erythema response to UVB: blocks the erythema response
Human skin explants; 100 μL 500 μM applied 30 minutes before 2,500 J/m^2 UVB
  UVB-induced MVP formation, pre-treatment: blocks UVB-induced MVP formation
Human skin explants; 100 μL 500 μM applied immediately after 2,500 J/m^2 UVB
  UVB-induced MVP formation, post-treatment: blocks UVB-induced MVP formation
UVB-induced MVP release
  UVB-induced MVP in plasma: blocked MVP accumulation
  UVB-induced MVP in skin: blocked MVP accumulation in skin
TNFα and IL-6 mRNA
  UVB-induced IL-6 mRNA: blocks IL-6 mRNA responses
  UVB-induced TNFα mRNA: blocks TNFα mRNA responses
HaCaT keratinocytes
  PDT-induced MVP release: blocked PDT-induced MVP release
[1]; 250 ng CPAF intraperitoneal, topical imipramine
  CPAF-induced systemic immunosuppression (CHS to DNFB): did not affect the immunosuppressive effects of CPAF
[1]; PDT 10 J/cm^2, 100 μL of 5% imipramine topical post-PDT, DNFB on PDT-treated skin
  PDT-induced local immunosuppression (CHS to DNFB): inhibited both local and systemic immunosuppression
[1]; PDT 10 J/cm^2, 100 μL of 5% imipramine topical post-PDT, DNFB on non-PDT-treated skin
  PDT-induced systemic immunosuppression (CHS to DNFB): inhibited both local and systemic immunosuppression
